In PubChem BioAssay AID248 (DTP/NCI, 2004):
Several values for one entry are separate records, joined by “and”; a condition that tells them apart may be missing. Equal values may be shown once. Toxic doses and inconclusive results are not listed. No stated cut-off is given here; in the data, active means T/C of 150% or more; inactive means T/C below 125%.

Tested on: L1210 leukemia ip in BDF1 mice, survival T/C
Test: NCI In Vivo Anticancer Drug Screen. Data for tumor model L1210 Leukemia (intraperitoneal) in B6D2F1 (BDF1) mice
Details: higher = longer survival
Summary of the method: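 Survival endpoint. Drug-treated group vs vehicle group, expressed as T divided by C. Tumor passaged by transplantation.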

[1] = endpoint: mean survival time, dose: 100.0 mg/kg/injection, schedule: Q04DX003 (ip), vehicle: saline
[2] = endpoint: mean survival time, dose: 200.0 mg/kg/injection, schedule: Q04DX003 (ip), vehicle: saline
[3] = endpoint: mean survival time, dose: 400.0 mg/kg/injection, schedule: Q04DX003 (ip), vehicle: saline
[4] = endpoint: mean survival time, dose: 100.0 mg/kg/injection, schedule: Q01DX009 (ip), vehicle: saline
[5] = endpoint: mean survival time, dose: 200.0 mg/kg/injection, schedule: Q01DX009 (ip), vehicle: saline
[6] = endpoint: mean survival time, dose: 400.0 mg/kg/injection, schedule: Q01DX009 (ip), vehicle: saline
[7] = endpoint: mean survival time, dose: 100.0 mg/kg/injection, schedule: Q04DX003 (ip), vehicle: saline with Tween-80
[8] = endpoint: mean survival time, dose: 75.0 mg/kg/injection, schedule: Q01DX001 (ip), vehicle: saline
[9] = endpoint: mean survival time, dose: 200.0 mg/kg/injection, schedule: Q04DX003 (ip), vehicle: saline with Tween-80
[10] = endpoint: mean survival time, dose: 400.0 mg/kg/injection, schedule: Q04DX003 (ip), vehicle: saline with Tween-80
[11] = endpoint: mean survival time, dose: 100.0 mg/kg/injection, schedule: Q01DX001 (ip), vehicle: carboxymethylcellulose (CMC)
[12] = endpoint: mean survival time, dose: 200.0 mg/kg/injection, schedule: Q01DX001 (ip), vehicle: carboxymethylcellulose (CMC)
[13] = endpoint: mean survival time, dose: 400.0 mg/kg/injection, schedule: Q01DX001 (ip), vehicle: carboxymethylcellulose (CMC)
[14] = endpoint: mean survival time, dose: 100.0 mg/kg/injection, schedule: Q01DX001 (ip), vehicle: saline
[15] = endpoint: mean survival time, dose: 200.0 mg/kg/injection, schedule: Q01DX001 (ip), vehicle: saline
[16] = endpoint: mean survival time, dose: 400.0 mg/kg/injection, schedule: Q01DX001 (ip), vehicle: saline
[17] = endpoint: mean survival time, dose: 100.0 mg/kg/injection, schedule: Q01DX009 (ip), vehicle: saline with Tween-80

Measured: T/C

NCC(NCc1ccccc1)(c1ccccc1)c1ccccc1
inactive: endpoint: mean survival time, dose: 20.0 mg/kg/injection, schedule: Q04DX003 (ip), vehicle: Klucel (hydroxypropylcellulose) (HPC) 94 % of control | endpoint: mean survival time, dose: 40.0 mg/kg/injection, schedule: Q04DX003 (ip), vehicle: Klucel (hydroxypropylcellulose) (HPC) 96 % of control | endpoint: mean survival time, dose: 80.0 mg/kg/injection, schedule: Q04DX003 (ip), vehicle: Klucel (hydroxypropylcellulose) (HPC) 102 % of control

O=C1C=C(Nc2cccc(Cl)c2)C(=O)N1c1cccc(Cl)c1
inactive: endpoint: mean survival time, dose: 75.0 mg/kg/injection, schedule: Q04DX003 (ip), vehicle: other 106 % of control | endpoint: mean survival time, dose: 150.0 mg/kg/injection, schedule: Q04DX003 (ip), vehicle: other 91 % of control | endpoint: mean survival time, dose: 300.0 mg/kg/injection, schedule: Q04DX003 (ip), vehicle: other 90 % of control

CN(C)CCOc1ncnc2nc[nH]c12
inactive: [1] 101 % of control | [2] 102 % of control | [3] 96 % of control

CCOC(=O)c1nc2c(C)nc(N(C)C)nc2n(C)c1=O
inactive: endpoint: mean survival time, dose: 100.0 mg/kg/injection, schedule: Q01DX001 (ip), vehicle: Klucel (hydroxypropylcellulose) (HPC) 100 % of control | endpoint: mean survival time, dose: 200.0 mg/kg/injection, schedule: Q01DX001 (ip), vehicle: Klucel (hydroxypropylcellulose) (HPC) 97 % of control | endpoint: mean survival time, dose: 400.0 mg/kg/injection, schedule: Q01DX001 (ip), vehicle: Klucel (hydroxypropylcellulose) (HPC) 94 % of control

CCCNC(C)=O
inactive: [4] 102 % of control | [5] 101 % of control | [6] 91 % of control

Nc1cc(C(=O)Nc2ccc(S(=O)(=O)O)cc2)ccc1C(=O)Nc1ccc(S(=O)(=O)O)cc1
inactive: endpoint: mean survival time, dose: 31.0 mg/kg/injection, schedule: Q01DX Z (ip), vehicle: water 87 % of control | endpoint: mean survival time, dose: 62.5 mg/kg/injection, schedule: Q01DX Z (ip), vehicle: water 100 % of control | endpoint: mean survival time, dose: 125.0 mg/kg/injection, schedule: Q01DX Z (ip), vehicle: water 97 % of control | endpoint: mean survival time, dose: 250.0 mg/kg/injection, schedule: Q01DX Z (ip), vehicle: water 95 % of control | endpoint: mean survival time, dose: 500.0 mg/kg/injection, schedule: Q01DX Z (ip), vehicle: water 97 % of control

NCCCNCCCCNCCCN
inactive: endpoint: mean survival time, dose: 2.0 mg/kg/injection, schedule: Q01DX010 (ip), vehicle: other 103 % of control | endpoint: mean survival time, dose: 4.0 mg/kg/injection, schedule: Q01DX010 (ip), vehicle: other 103 % of control | endpoint: mean survival time, dose: 8.0 mg/kg/injection, schedule: Q01DX010 (ip), vehicle: other 97 % of control | endpoint: mean survival time, dose: 16.0 mg/kg/injection, schedule: Q01DX010 (ip), vehicle: other 92 % of control | endpoint: mean survival time, dose: 32.0 mg/kg/injection, schedule: Q01DX010 (ip), vehicle: other 97 % of control | endpoint: median survival time, dose: 6.3 mg/kg/injection, schedule: Q01DX009 (ip), vehicle: water 87 % of control and 90 % of control | endpoint: median survival time, dose: 12.5 mg/kg/injection, schedule: Q01DX009 (ip), vehicle: water 96 % of control and 100 % of control | endpoint: median survival time, dose: 25.0 mg/kg/injection, schedule: Q01DX009 (ip), vehicle: water 94 % of control and 95 % of control | endpoint: median survival time, dose: 50.0 mg/kg/injection, schedule: Q01DX009 (ip), vehicle: water 96 % of control and 100 % of control

O=C(C[n+]1cccc(Cl)c1)c1ccccc1
inactive: endpoint: mean survival time, dose: 0.5 mg/kg/injection, schedule: Q04DX003 (ip), vehicle: saline 113 % of control | endpoint: mean survival time, dose: 1.0 mg/kg/injection, schedule: Q04DX003 (ip), vehicle: saline 105 % of control | endpoint: mean survival time, dose: 2.0 mg/kg/injection, schedule: Q04DX003 (ip), vehicle: saline 102 % of control

CC1=NN(c2ccccc2)C(=O)C1C(=O)c1ccccc1 (stereo unspecified)
inactive: endpoint: mean survival time, dose: 25.0 mg/kg/injection, schedule: Q01DX009 (ip), vehicle: saline with Tween-80 92 % of control | endpoint: mean survival time, dose: 50.0 mg/kg/injection, schedule: Q01DX009 (ip), vehicle: saline with Tween-80 95 % of control | [7] 94 % of control

C[n+]1ccc(/C=C/Nc2cccc(N)n2)cc1
inactive: [8] 96 % of control | endpoint: mean survival time, dose: 150.0 mg/kg/injection, schedule: Q01DX001 (ip), vehicle: saline 102 % of control

C=CC1(C)CCC2C(=CCC3C2(C)CC(O)C(O)C3(C)COC2OC(CO)C(O)C(O)C2O)C1 (stereo unspecified)
inactive: [8] 96 % of control

CN(C)c1ccc(/C=C2\C=Nc3ccccc32)cc1
inactive: [7] 87 % of control | [9] 87 % of control | [10] 87 % of control

O=S(=O)(O)SCCCNc1ncnc2ccccc12
inactive: [11] 107 % of control | [12] 105 % of control | [13] 102 % of control

CN(C)S(=O)(=O)c1ccc(NC(=O)OC2CCCC2)cc1
inactive: [11] 93 % of control | [12] 98 % of control | [13] 98 % of control

C/C=C(\Br)C(=O)Nc1ccc(OCC)cc1
inactive: [14] 100 % of control | [15] 105 % of control

NC(N)=N/N=C\c1c[nH]c2ccccc12
inactive: endpoint: mean survival time, dose: 15.0 mg/kg/injection, schedule: Q01DX Z (ip), vehicle: carboxymethylcellulose (CMC) 102 % of control | endpoint: mean survival time, dose: 30.0 mg/kg/injection, schedule: Q01DX Z (ip), vehicle: carboxymethylcellulose (CMC) 103 % of control | endpoint: mean survival time, dose: 30.0 mg/kg/injection, schedule: Q01DX Z (oral), vehicle: carboxymethylcellulose (CMC) 89 % of control | endpoint: mean survival time, dose: 60.0 mg/kg/injection, schedule: Q01DX Z (ip), vehicle: carboxymethylcellulose (CMC) 100 % of control | endpoint: mean survival time, dose: 60.0 mg/kg/injection, schedule: Q01DX Z (oral), vehicle: carboxymethylcellulose (CMC) 92 % of control | endpoint: mean survival time, dose: 120.0 mg/kg/injection, schedule: Q01DX Z (oral), vehicle: carboxymethylcellulose (CMC) 96 % of control | endpoint: mean survival time, dose: 240.0 mg/kg/injection, schedule: Q01DX Z (oral), vehicle: carboxymethylcellulose (CMC) 96 % of control

CCN(CC)C(=O)Nc1cccc(O)c1
inactive: [7] 94 % of control | [9] 91 % of control | [10] 93 % of control

COc1ccccc1OCCN1Cc2ccccc2C1
inactive: [7] 96 % of control | [9] 92 % of control

CCSC1OC(COC(C)=O)C(OC(C)=O)C1NC(C)=O (stereo unspecified)
inactive: endpoint: mean survival time, dose: 50.0 mg/kg/injection, schedule: Q01DX001 (ip), vehicle: saline 103 % of control | [14] 113 % of control | [15] 97 % of control | [16] 107 % of control

COC(=O)C1=C(C(=O)OC)[C@H]2O[C@H]1[C@@H]1O[C@@H]12
inactive: endpoint: mean survival time, dose: 6.25 mg/kg/injection, schedule: Q01DX009 (ip), vehicle: saline 104 % of control | endpoint: mean survival time, dose: 12.5 mg/kg/injection, schedule: Q01DX001 (ip), vehicle: saline 99 % of control | endpoint: mean survival time, dose: 12.5 mg/kg/injection, schedule: Q01DX009 (ip), vehicle: saline 100 % of control | endpoint: mean survival time, dose: 25.0 mg/kg/injection, schedule: Q01DX001 (ip), vehicle: saline 100 % of control

O=C1c2ccccc2-c2cccc(Cl)c21
inactive: [11] 101 % of control | [12] 93 % of control | [13] 104 % of control

CC12CCC3C(CCC4C(C)(C(=O)O)CCCC34C)(CC1=O)C2 (stereo unspecified)
inactive: endpoint: mean survival time, dose: 100.0 mg/kg/injection, schedule: Q01DX001 (ip), vehicle: saline with Tween-80 92 % of control | endpoint: mean survival time, dose: 200.0 mg/kg/injection, schedule: Q01DX001 (ip), vehicle: saline with Tween-80 95 % of control

CCC[n+]1nsc2ccccc21
inactive: [14] 101 % of control

CCc1cc(S(=O)(=O)O)c(CC)c(CC)c1CC
inactive: [17] 97 % of control

C/C(=N/NC(=S)Nc1cc(I)ccc1C)c1cc(C)ccc1O
inactive: endpoint: mean survival time, dose: 12.5 mg/kg/injection, schedule: Q04DX002 (ip), vehicle: Klucel (hydroxypropylcellulose) (HPC) 97 % of control | endpoint: mean survival time, dose: 25.0 mg/kg/injection, schedule: Q04DX002 (ip), vehicle: Klucel (hydroxypropylcellulose) (HPC) 102 % of control | endpoint: mean survival time, dose: 50.0 mg/kg/injection, schedule: Q04DX002 (ip), vehicle: Klucel (hydroxypropylcellulose) (HPC) 94 % of control

CCC(C)c1ccc(O)c(C(C)CC)c1 (stereo unspecified)
inactive: [17] 106 % of control | [7] 106 % of control | endpoint: mean survival time, dose: 200.0 mg/kg/injection, schedule: Q01DX009 (ip), vehicle: saline with Tween-80 101 % of control | [9] 101 % of control | endpoint: mean survival time, dose: 400.0 mg/kg/injection, schedule: Q01DX009 (ip), vehicle: saline with Tween-80 102 % of control | [10] 94 % of control

COc1ccc(CNc2ccccc2C(=O)O)cc1OC
inactive: [14] 91 % of control | [16] 103 % of control

NC(Cc1cc(Br)c(O)c(Br)c1)C(=O)O (stereo unspecified)
inactive: [14] 97 % of control | [4] 90 % of control | [1] 103 % of control | [15] 97 % of control | [5] 109 % of control | [2] 98 % of control | [16] 91 % of control | [6] 93 % of control | [3] 97 % of control
